Laboratory results as given in paper PMC8815882, “Screening the pandemic response box identified benzimidazole carbamates, Olorofim and ravuconazole as promising drug candidates for the treatment of eumycetoma” (PLoS Neglected Tropical Diseases, 2022).
Like-named read-outs stand apart in the source and are kept apart here.

System: M. mycetomatis genome strain MM55
Experiment: CLSI M38-A2 based in vitro susceptibility screening (XTT or resazurin), growth at fixed concentration
Assay type: cell-based, Madurella mycetomatis
Settings: Madurella mycetomatis; for Percent fungal survival at 100 µM: replicate 2, M. mycetomatis MM55, read-out: Percentage survival at 100um, 100 uM A (second replicate column)
[1] = mean of replicates, MM55, read-out: Percentage survival at 25um, 25 uM mean
[2] = replicate A, MM55, read-out: Percentage survival at 25um, 25 um A
[3] = replicate B, MM55, read-out: Percentage survival at 25um, 25 uM B
[4] = replicate C, MM55, read-out: Percentage survival at 25um, 25 uM C
[5] = mean of replicates, MM55, read-out: Percentage survival at 100um, 100 uM mean
[6] = replicate 1, MM55, read-out: Percentage survival at 100um, 100 uM A
[7] = replicate 2, MM55, read-out: Percentage survival at 100um, 100 uM A
[8] = replicate 3, MM55, read-out: Percentage survival at 100um, 100 uM A
[9] = mean of three replicates, read-out: Percentage survival at 25um, 25 uM mean
[10] = replicate A, read-out: Percentage survival at 25um, 25 um A
[11] = replicate B, read-out: Percentage survival at 25um, 25 uM B
[12] = replicate C, read-out: Percentage survival at 25um, 25 uM C
[13] = first replicate column, read-out: Percentage survival at 100um, 100 uM A
[14] = mean of three replicates, read-out: Percentage survival at 100um, 100 uM mean
[15] = second replicate column, read-out: Percentage survival at 100um, 100 uM A
[16] = third replicate column, read-out: Percentage survival at 100um, 100 uM A
[17] = mean of three, M. mycetomatis MM55, read-out: Percentage survival at 25um, 25 uM mean
[18] = replicate A, M. mycetomatis MM55, read-out: Percentage survival at 25um, 25 um A
[19] = replicate B, M. mycetomatis MM55, read-out: Percentage survival at 25um, 25 uM B
[20] = replicate C, M. mycetomatis MM55, read-out: Percentage survival at 25um, 25 uM C
[21] = mean of three, M. mycetomatis MM55, read-out: Percentage survival at 100um, 100 uM mean
[22] = replicate 1, M. mycetomatis MM55, read-out: Percentage survival at 100um, 100 uM A (first replicate column)
[23] = replicate 3, M. mycetomatis MM55, read-out: Percentage survival at 100um, 100 uM A (third replicate column)

| SMILES | activity at 25 µM [1] [%] | activity at 25 µM [2] [%] | activity at 25 µM [3] [%] | activity at 25 µM [4] [%] | activity at 100 µM [5] [%] | activity at 100 µM [6] [%] | activity at 100 µM [7] [%] | activity at 100 µM [8] [%] | activity at 25 µM [9] [%] | activity at 25 µM [10] [%] | activity at 25 µM [11] [%] | activity at 25 µM [12] [%] | activity at 100 µM [13] [%] | activity at 100 µM [14] [%] | activity at 100 µM [15] [%] | activity at 100 µM [16] [%] | further results |
| --- | --- | --- | --- | --- | --- | --- | --- | --- | --- | --- | --- | --- | --- | --- | --- | --- | --- |
| CN(C(=O)C1(c2ccc(Cl)cc2)CCC1)c1ccccc1 [MMV1581030] | 63.9 | 61.1 | 107 | 23.2 | 9.02 | 16 | 1.46 | 9.58 | – | – | – | – | – | – | – | – | – |
| N[C@H](CCC(=O)N[C@@H](Cc1c[nH]c2ccccc12)C(=O)O)C(=O)O [MMV1581033] | 91 | 91.2 | 94.6 | 87.2 | 66.8 | 84.1 | 28.6 | 87.7 | – | – | – | – | – | – | – | – | – |
| Cc1c(F)cccc1NC(=O)Nc1ccc(Cl)c(S(=O)(=O)[C@H]2CCCNC2)c1O [MMV1581034] | 83.9 | 82 | 88.9 | 80.7 | 77.6 | 82.8 | 73.6 | 76.3 | – | – | – | – | – | – | – | – | – |
| NC(=O)c1ccc(I)c([N+](=O)[O-])c1 [MMV1581035] | – | – | – | – | – | – | – | – | 97.6 | 97.2 | 103 | 92.5 | 89.6 | 90.1 | 93.1 | 87.5 | – |
| COc1ccc(C[C@@H](C)[C@@H](C)Cc2ccc(OC)c(OC)c2)cc1OC [MMV1581036] | 68.5 | 72.1 | 71.5 | 61.9 | 52.6 | 50.8 | 58.7 | 48.3 | – | – | – | – | – | – | – | – | – |
| O=C1[C@H](CC[C@H](O)c2ccc(F)cc2)[C@@H](c2ccc(O)cc2)N1c1ccc(F)cc1 [MMV1581377] | – | – | – | – | – | – | – | – | 91.9 | 82.7 | 93.7 | 99.2 | -3.71 | 43.8 | 57.6 | 77.4 | – |
| Nc1ccc2oc(=O)ccc2c1I [MMV1581378] | – | – | – | – | – | – | – | – | 80.5 | 75.8 | 85.5 | 80.1 | 75.4 | 64.9 | 66.2 | 53.2 | – |
| O=c1cc(Nc2ccc3ccccc3c2)[nH]c(=O)[nH]1 [MMV1581546] | – | – | – | – | – | – | – | – | – | – | – | – | – | – | – | – | activity at 25 µM [17]: 84.3%; activity at 25 µM [18]: 93.6%; activity at 25 µM [19]: 85%; activity at 25 µM [20]: 74.5%; activity at 100 µM [21]: 86%; activity at 100 µM [22]: 78.9%; Percent fungal survival at 100 µM: 98.5%; activity at 100 µM [23]: 80.4% |
| CC(C)(C)OC(=O)NCc1ccc(C(=O)N[C@H]2CCOC2=O)cc1 [MMV1581547] | – | – | – | – | – | – | – | – | – | – | – | – | – | – | – | – | activity at 25 µM [17]: 87.5%; activity at 25 µM [18]: 95.2%; activity at 25 µM [19]: 90.1%; activity at 25 µM [20]: 77.3%; activity at 100 µM [21]: 113%; activity at 100 µM [22]: 94.9%; Percent fungal survival at 100 µM: 156%; activity at 100 µM [23]: 89.2% |
| CC(C)(C)c1cccc(-c2nc3cc(C(=N)N)ccc3[nH]2)c1O [MMV1581548] | – | – | – | – | – | – | – | – | – | 56.8 | 2.31 | 2.96 | – | – | – | – | activity at 25 µM (mean, read-out: Percentage survival at 25um, 25 uM mean): 20.7%; activity at 100 µM (mean, read-out: Percentage survival at 100um, 100 uM mean): 3.06%; activity at 100 µM (replicate (first column), read-out: Percentage survival at 100um, 100 uM A): -0.0188%; activity at 100 µM (replicate (second column), read-out: Percentage survival at 100um, 100 uM A): 5.51%; activity at 100 µM (replicate (third column), read-out: Percentage survival at 100um, 100 uM A): 3.71% |
